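All cell lines were grown in 96-well plates and treated with compound for 48 hours. The concentration for 50% growth inhibition is given as GI50.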 Activity calls are given as the source filed them. No stated cut-off is given here; in the data, active = GI50 up to about 1.1 µM and inactive = higher.
Tests used:
Experiment in all cases: DTP human tumour cell line panel, 48 h
SNB-75 = system: SNB-75
A549 = system: A549
HT-29 = system: HT-29
NCI-H460 = system: NCI-H460
SF-295 = system: SF-295
IGROV-1 = system: IGROV-1
K562 = system: K562
KM12 = system: KM12
OVCAR-3 = system: OVCAR-3
MDA-N = system: MDA-N
RXF 393 = system: RXF 393
ACHN = system: ACHN
UO-31 = system: UO-31
DU-145 = system: DU-145
UACC-62 = system: UACC-62
SF-539 = system: SF-539
OVCAR-4 = system: OVCAR-4
SNB-19 = system: SNB-19
786-0 = system: 786-0

Measured: GI50

O=S(=O)(/N=C(\NO)Nc1ccc(Cl)cc1)c1ccc(-c2ccccn2)s1
inactive: SNB-75 50.7 µM | A549 61 µM | HT-29 82.8 µM | NCI-H460 87.3 µM | SF-295 52.1 µM | IGROV-1 38.5 µM | K562 50.2 µM | KM12 86.9 µM | OVCAR-3 4.03 µM | MDA-N 24.2 µM | RXF 393 19 µM | ACHN 35.6 µM | UO-31 80.2 µM | DU-145 > 100 µM | UACC-62 44.2 µM | SF-539 41.4 µM | OVCAR-4 16.4 µM | SNB-19 > 100 µM

CCN(CC)CCSc1nc(-c2c[nH]c3nc(C)ccc3c2=O)n[nH]1
inactive: A549 > 100 µM | HT-29 > 100 µM | NCI-H460 > 100 µM | SF-295 > 100 µM | IGROV-1 > 100 µM | K562 > 100 µM | KM12 > 100 µM | OVCAR-3 > 100 µM | MDA-N > 100 µM | RXF 393 > 100 µM | ACHN > 100 µM | UO-31 > 100 µM | DU-145 > 100 µM | UACC-62 > 100 µM | OVCAR-4 > 100 µM | 786-0 > 100 µM | SNB-19 > 100 µM

CCc1cc2c(oc3cc4ccccc4cc32)c(=O)[nH]1
inactive: SNB-75 > 10 µM | A549 > 10 µM | HT-29 > 10 µM | NCI-H460 > 10 µM | SF-295 > 10 µM | IGROV-1 > 10 µM | KM12 > 10 µM | OVCAR-3 > 10 µM | MDA-N > 10 µM | RXF 393 > 10 µM | ACHN > 10 µM | UO-31 > 10 µM | DU-145 > 10 µM | SF-539 > 10 µM | OVCAR-4 > 10 µM | 786-0 > 10 µM | SNB-19 > 10 µM

O=C1CC2(CCC(O)(c3ccccc3)C(C(=O)c3ccccc3)C2)C(=O)c2ccccc2N1 (centres undefined)
inactive: SNB-75 > 100 µM | A549 > 100 µM | HT-29 > 100 µM | NCI-H460 > 100 µM | SF-295 > 100 µM | IGROV-1 > 100 µM | K562 > 100 µM | OVCAR-3 > 100 µM | MDA-N > 100 µM | RXF 393 > 100 µM | UO-31 > 100 µM | DU-145 > 100 µM | UACC-62 > 100 µM | SF-539 > 100 µM | OVCAR-4 38.2 µM | SNB-19 > 100 µM

COc1ccc(C2c3cc4c(cc3OC(Nc3ccccc3)C2C)OCO4)cc1 (centres undefined)
inactive: SNB-75 44.1 µM | A549 22.5 µM | HT-29 31.7 µM | NCI-H460 7.98 µM | SF-295 25.5 µM | IGROV-1 99.8 µM | K562 15.2 µM | KM12 28.6 µM | OVCAR-3 53.1 µM | MDA-N > 100 µM | RXF 393 33.5 µM | ACHN 21.8 µM | UO-31 29.5 µM | DU-145 57.9 µM | UACC-62 52.8 µM | SF-539 > 100 µM | SNB-19 > 100 µM

N#C/C(=C/NC(=S)c1ccncc1)C(N)=O
inactive: SNB-75 > 100 µM | A549 > 100 µM | HT-29 > 100 µM | NCI-H460 > 100 µM | SF-295 > 100 µM | IGROV-1 > 100 µM | KM12 > 100 µM | OVCAR-3 > 100 µM | MDA-N > 100 µM | RXF 393 > 100 µM | ACHN > 100 µM | UO-31 > 100 µM | DU-145 > 100 µM | UACC-62 > 100 µM | SF-539 > 100 µM | OVCAR-4 > 100 µM | 786-0 > 100 µM | SNB-19 > 100 µM

CCc1c(C)c(C#N)c(=S)n(C2OC(COC(C)=O)C(OC(C)=O)C(OC(C)=O)C2OC(C)=O)c1-c1ccccc1 (centres undefined)
inactive: SNB-75 1.84 µM | A549 > 31.6 µM | HT-29 > 31.6 µM | NCI-H460 > 31.6 µM | SF-295 16.2 µM | IGROV-1 23.7 µM | K562 21.1 µM | KM12 > 31.6 µM | OVCAR-3 > 31.6 µM | MDA-N > 31.6 µM | RXF 393 > 10 µM | ACHN 23.7 µM | UO-31 > 24.6 µM | DU-145 > 31.6 µM | UACC-62 > 10 µM | SF-539 23.6 µM | OVCAR-4 > 31.5 µM | 786-0 20.7 µM | SNB-19 > 10 µM

Cc1nnc2n1-c1ccccc1N(Cc1ccccc1)CC2
inactive: SNB-75 52.6 µM | A549 75.7 µM | HT-29 40.1 µM | NCI-H460 > 100 µM | SF-295 75 µM | IGROV-1 50.6 µM | K562 20.3 µM | KM12 81.1 µM | OVCAR-3 39.6 µM | MDA-N 46.2 µM | RXF 393 34.8 µM | ACHN 49.5 µM | UO-31 34.5 µM | DU-145 70.3 µM | UACC-62 39.6 µM | SF-539 > 100 µM | OVCAR-4 71.9 µM | 786-0 87.7 µM | SNB-19 > 100 µM

CSC1=N/C(=C\c2ccccc2)C(=O)N1CN1CCCCC1
inactive: SNB-75 56.1 µM | A549 87.7 µM | HT-29 22.5 µM | SF-295 > 100 µM | IGROV-1 38.7 µM | K562 26.7 µM | KM12 65 µM | OVCAR-3 > 100 µM | MDA-N 88.3 µM | ACHN 34.9 µM | UO-31 39.5 µM | DU-145 > 100 µM | UACC-62 58.3 µM | OVCAR-4 16.4 µM | 786-0 42.2 µM | SNB-19 46.1 µM

Cc1ccc2nc(C(C)C)c(=O)[nH]c2c1
inactive: SNB-75 42.4 µM | A549 57 µM | HT-29 > 100 µM | NCI-H460 > 100 µM | SF-295 71 µM | IGROV-1 > 100 µM | K562 > 100 µM | KM12 31.8 µM | OVCAR-3 18.8 µM | MDA-N > 100 µM | RXF 393 93.1 µM | ACHN > 100 µM | UO-31 > 100 µM | DU-145 > 100 µM | UACC-62 > 100 µM | SF-539 85.1 µM | OVCAR-4 71.9 µM | 786-0 52.7 µM | SNB-19 > 100 µM

C/C(=N\NC(=O)c1ccncc1)c1cccc(C(F)(F)F)c1
inactive: SNB-75 > 10 µM | A549 > 10 µM | HT-29 > 10 µM | NCI-H460 > 10 µM | IGROV-1 > 10 µM | K562 > 10 µM | KM12 > 10 µM | MDA-N > 10 µM | UO-31 > 10 µM | DU-145 > 10 µM | UACC-62 > 10 µM | SF-539 > 10 µM | OVCAR-4 > 10 µM

From ChEMBL document CHEMBL1201862, “PubChem BioAssay data set” (2004)
